Reference: patent US5120735A, “Antifungal composition” (Kaken Pharmaceutical Co., Ltd., priority 1987, dated 1992)

Experiments:
[1] = tested on: Candida albicans MTU 12021; assay: Agar dilution MIC, single and combined use; format: cell-based; conditions: Candida albicans, MTU12021; single use; Sabouraud agar, 37° C., 48 hours; read-out: Minimum Inhibitory Concentration (MIC)
Description: (1) The effects of the combined use of Compound 1 with various imidazole antifungal agents against Candida albicans MTU 12021 strain were examined as follows. […] Then, distilled water containing 0.1% by weight of Tween 80 was added thereto to obtain drug solutions having a concentration of from 1 to 1,000 μg/ml.
(§1) 1 ml of each drug solution diluted twice was introduced into a sterilized Petri dish, and 8 ml of Sabouraud agar medium was added to prepare a agar plate. Thus, a series of agar plates for the combinations having various concentrations were prepared.
(§2) Candida albicans MTU 12021 strain cultured on a Sabouraud agar medium for 24 hours, was suspended in a saline, and a cells suspension having a concentration of 2×10^6 spores/ml was prepared by counting the number of spores by a hemacytometer. Then, 50 μl of the cells suspension was inoculated to the above agar plates by means of a microplanter (manufactured by Sakuma Seisakusho). The inoculated agar plates were cultured at 37° C. for 48 hours, whereupon the presence or absence of the growth of the strain was examined.
(§3) Culture medium: Sabouraud agar medium
(§4) Culturing condition: 37° C. for 48 hours
(§5) Strain used: Candida albicans MTU 12021

[2] = tested on: Candida albicans MTU 12021; assay: Checker board method, combined use of Compound 1 with miconazole or ketoconazole; format: cell-based; further: key: +: Growth observed; -: No growth observed
Description: as §1, §2, §3, §4, §5

[3] = tested on: Candida albicans MTU 12021; assay: Influence of combined use of Compound 1 with miconazole over the growth curve; format: cell-based; conditions: 24 and 48 hours, FIG. 1
Description: Upon expiration of 24 hours and 48 hours, 0.1 ml of the culture medium was sampled and spread on a Sabouraud agar plate containing 0.5% of yeast extract, followed by culturing at 37° C. for 48 hours. Then, the number of colonies were counted to determine the number of survived fungi.

[4] = tested on: Candida albicans MTU 12021; assay: Disk method (growth inhibition ring); format: cell-based
Description: (3) The effects of the combined use of Compound 1 with miconazole or ketoconazole were examined by a disk method.
Candida albicans MTU 12021 stain was mixed with a Sabouraud agar medium to have a concentration of 5×10^4 spores/ml, and 10 ml thereof was poured into a sterilized Petri dish to obtain an inoculated agar plate.
50 mg of each of Compound 1, miconazole and ketoconazole was impregnated to a disk (Toyo Filter paper of 8 mm in diameter), and the disk was placed on the inoculated agar plate, followed by culturing at 37° C. for 96 hours, whereupon the synergistic effects were evaluated based on the growth inhibition ring thereby appeared.

ICR male mice = assay: Acute toxicity, oral, mice; format: in vivo; conditions: up to 5,000 mg/kg, ICR male mice of 5 weeks old
Description: To examine the acute toxicity of the arylmethylamine antifungal agents used in the composition of the present invention, Compounds 1 and 2 were selected, and they were, respectively, suspended in 0.5% methyl cellulose and orally administered to ICR male mice of 5 weeks old (body weight: 26-28 g) at a dose corresponding to the body weight.

[5] = tested on: Candida albicans MTU 12021; assay: Agar dilution MIC, single and combined use; format: cell-based; conditions: Compound 1 combined with non-azole agents; Table 4

## CN(Cc1ccc(C(C)(C)C)cc1)Cc1cccc2ccccc12 [Compound 1, N-4-tert-butylbenzyl-N-methyl-1-naphthalenemethylamine]
[1]
  MIC: > 100 µg/mL
[2]; Compound 1 0.39 μg/ml, ketoconazole 0
  Growth: +
[2]; Compound 1 0.78 μg/ml, ketoconazole 0
  Growth: +
[2]; Compound 1 1.56 μg/ml, ketoconazole 0
  Growth: +
[2]; Compound 1 3.13 μg/ml, ketoconazole 0
  Growth: +
[2]; Compound 1 3.13 μg/ml, miconazole 0
  Growth: +
[2]; Compound 1 12.5 μg/ml, ketoconazole 0
  Growth: +
[2]; Compound 1 12.5 μg/ml, miconazole 0
  Growth: +
[2]; Compound 1 25 μg/ml, ketoconazole 0
  Growth: +
[2]; Compound 1 25 μg/ml, miconazole 0
  Growth: +
[2]; Compound 1 50 μg/ml, ketoconazole 0
  Growth: +
[2]; Compound 1 50 μg/ml, miconazole 0
  Growth: +
[2]; Compound 1 100 μg/ml, ketoconazole 0
  Growth: +
[2]; Compound 1 100 μg/ml, miconazole 0
  Growth: +
[2]; Compound 1 0.39 + ketoconazole 0.1 μg/ml
  Growth: +
[2]; Compound 1 0.39 + ketoconazole 0.2 μg/ml
  Growth: +
[2]; Compound 1 0.39 + ketoconazole 0.39 μg/ml
  Growth: +
[2]; Compound 1 0.39 + ketoconazole 0.78 μg/ml
  Growth: +
[2]; Compound 1 0.39 + ketoconazole 1.56 μg/ml
  Growth: +
[2]; Compound 1 0.39 + ketoconazole 3.13 μg/ml
  Growth: +
[2]; Compound 1 0.39 + ketoconazole 12.5 μg/ml
  Growth: +
[2]; Compound 1 0.39 + ketoconazole 25 μg/ml
  Growth: -
[2]; Compound 1 0.39 + ketoconazole 50 μg/ml
  Growth: -
[2]; Compound 1 0.39 + ketoconazole 100 μg/ml
  Growth: -
[2]; Compound 1 0.78 + ketoconazole 0.1 μg/ml
  Growth: +
[2]; Compound 1 0.78 + ketoconazole 25 μg/ml
  Growth: -
[2]; Compound 1 0.78 + ketoconazole 50 μg/ml
  Growth: -
[2]; Compound 1 0.78 + ketoconazole 100 μg/ml
  Growth: -
[2]; Compound 1 1.56 + ketoconazole 0.1 μg/ml
  Growth: +
[2]; Compound 1 1.56 + ketoconazole 25 μg/ml
  Growth: -
[2]; Compound 1 1.56 + ketoconazole 50 μg/ml
  Growth: -
[2]; Compound 1 1.56 + ketoconazole 100 μg/ml
  Growth: -
[2]; Compound 1 3.13 + ketoconazole 0.1 μg/ml
  Growth: +
[2]; Compound 1 3.13 + ketoconazole 25 μg/ml
  Growth: -
[2]; Compound 1 3.13 + ketoconazole 50 μg/ml
  Growth: -
[2]; Compound 1 3.13 + ketoconazole 100 μg/ml
  Growth: -
[2]; Compound 1 3.13 + miconazole 0.39 μg/ml
  Growth: +
[2]; Compound 1 3.13 + miconazole 0.78 μg/ml
  Growth: +
[2]; Compound 1 3.13 + miconazole 1.56 μg/ml
  Growth: +
[2]; Compound 1 3.13 + miconazole 3.13 μg/ml
  Growth: +
[2]; Compound 1 3.13 + miconazole 12.5 μg/ml
  Growth: +
[2]; Compound 1 3.13 + miconazole 25 μg/ml
  Growth: +
[2]; Compound 1 3.13 + miconazole 50 μg/ml
  Growth: -
[2]; Compound 1 3.13 + miconazole 100 μg/ml
  Growth: -
[2]; Compound 1 6.25 + ketoconazole 0.1 μg/ml
  Growth: +
[2]; Compound 1 6.25 + ketoconazole 25 μg/ml
  Growth: -
[2]; Compound 1 6.25 + ketoconazole 50 μg/ml
  Growth: -
[2]; Compound 1 6.25 + ketoconazole 100 μg/ml
  Growth: -
[2]; Compound 1 6.25 + miconazole 0.39 μg/ml
  Growth: +
[2]; Compound 1 6.25 + miconazole 0.78 μg/ml
  Growth: +
[2]; Compound 1 6.25 + miconazole 1.56 μg/ml
  Growth: +
[2]; Compound 1 6.25 + miconazole 3.13 μg/ml
  Growth: +
[2]; Compound 1 6.25 + miconazole 12.5 μg/ml
  Growth: +
[2]; Compound 1 6.25 + miconazole 25 μg/ml
  Growth: +
[2]; Compound 1 6.25 + miconazole 50 μg/ml
  Growth: -
[2]; Compound 1 6.25 + miconazole 100 μg/ml
  Growth: -
[2]; Compound 1 12.5 + ketoconazole 0.1 μg/ml
  Growth: +
[2]; Compound 1 12.5 + ketoconazole 25 μg/ml
  Growth: -
[2]; Compound 1 12.5 + ketoconazole 50 μg/ml
  Growth: -
[2]; Compound 1 12.5 + ketoconazole 100 μg/ml
  Growth: -
[2]; Compound 1 12.5 + miconazole 0.39 μg/ml
  Growth: +
[2]; Compound 1 12.5 + miconazole 0.78 μg/ml
  Growth: +
[2]; Compound 1 12.5 + miconazole 50 μg/ml
  Growth: -
[2]; Compound 1 12.5 + miconazole 100 μg/ml
  Growth: -
[2]; Compound 1 25 + ketoconazole 0.1 μg/ml
  Growth: +
[2]; Compound 1 25 + ketoconazole 25 μg/ml
  Growth: -
[2]; Compound 1 25 + ketoconazole 50 μg/ml
  Growth: -
[2]; Compound 1 25 + ketoconazole 100 μg/ml
  Growth: -
[2]; Compound 1 25 + miconazole 0.39 μg/ml
  Growth: +
[2]; Compound 1 25 + miconazole 0.78 μg/ml
  Growth: +
[2]; Compound 1 25 + miconazole 50 μg/ml
  Growth: -
[2]; Compound 1 25 + miconazole 100 μg/ml
  Growth: -
[2]; Compound 1 50 + ketoconazole 0.1 μg/ml
  Growth: +
[2]; Compound 1 50 + ketoconazole 25 μg/ml
  Growth: -
[2]; Compound 1 50 + ketoconazole 50 μg/ml
  Growth: -
[2]; Compound 1 50 + ketoconazole 100 μg/ml
  Growth: -
[2]; Compound 1 50 + miconazole 0.39 μg/ml
  Growth: +
[2]; Compound 1 50 + miconazole 0.78 μg/ml
  Growth: +
[2]; Compound 1 50 + miconazole 50 μg/ml
  Growth: -
[2]; Compound 1 50 + miconazole 100 μg/ml
  Growth: -
[2]; Compound 1 100 + ketoconazole 0.1 μg/ml
  Growth: +
[2]; Compound 1 100 + ketoconazole 25 μg/ml
  Growth: -
[2]; Compound 1 100 + ketoconazole 50 μg/ml
  Growth: -
[2]; Compound 1 100 + ketoconazole 100 μg/ml
  Growth: -
[2]; Compound 1 100 + miconazole 0.39 μg/ml
  Growth: +
[2]; Compound 1 100 + miconazole 0.78 μg/ml
  Growth: +
[2]; Compound 1 100 + miconazole 50 μg/ml
  Growth: -
[2]; Compound 1 100 + miconazole 100 μg/ml
  Growth: -
[3]
  influence over growth curve: fungistatic or fungicidal effects were enhanced
[4]; Compound 1 disk on periphery of incomplete inhibitory ring of miconazole disk, FIG. 2
  effect of combined use with miconazole on inhibitory ring: a portion of the incomplete inhibitory ring is completely inhibited
[4]; FIG. 3
  effects of combined use, Compound 1 with ketoconazole: remarkable effects of the combined use
ICR male mice
  death: no instance of death
[5]
  synergistic effects of combined use with non-azole antifungal agents: no synergistic effects were observed
